Among the data in publication PMC8791944, “GLUT3 inhibitor discovery through in silico ligand screening and in vivo validation in eukaryotic expression systems” (Scientific Reports, 2022) are IC50 values, retold here.

This test has as its target T1, GLUT1 (Homo sapiens, UniProt P11166).
T1 construct: expressed in transfected cells; host or cells: Saccharomyces cerevisiae hxt0 strain EBY.S7 (fgy1)
T1 sequence (P11166 1-492): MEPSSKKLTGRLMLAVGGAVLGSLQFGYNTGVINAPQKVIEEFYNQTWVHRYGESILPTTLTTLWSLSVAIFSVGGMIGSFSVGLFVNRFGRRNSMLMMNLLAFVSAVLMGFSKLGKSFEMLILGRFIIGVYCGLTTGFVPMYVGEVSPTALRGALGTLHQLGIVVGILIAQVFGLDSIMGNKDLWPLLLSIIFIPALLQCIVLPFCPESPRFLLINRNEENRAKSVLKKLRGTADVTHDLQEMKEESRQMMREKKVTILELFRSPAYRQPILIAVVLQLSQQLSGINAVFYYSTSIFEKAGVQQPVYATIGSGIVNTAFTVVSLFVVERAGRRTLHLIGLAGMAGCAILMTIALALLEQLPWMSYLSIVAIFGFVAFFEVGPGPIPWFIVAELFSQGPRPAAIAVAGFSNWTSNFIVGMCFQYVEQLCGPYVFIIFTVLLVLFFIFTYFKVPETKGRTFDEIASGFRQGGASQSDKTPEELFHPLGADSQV
Kind of test: Glucose transport assay, GLUT1 expressed in hxt^0 yeast cells EBY.S7. The class given is cell-based. Particulars: read-out: IC50 for GLUT1 transport inhibition. The text has this: The most studied GLUTs are Class 1 GLUTs (GLUT1-4) and a Class 2 GLUT, GLUT5 (a fructose-only transporter). GLUT3 sequence homology and identity is 79% and 64%, 71% and 52%, 74% and 57%, and 60% and 38% with GLUT1, GLUT2, GLUT4, and GLUT5, respectively. The hxt^0 yeast cell systems expressing functional GLUT1-4[65],[69] and GLUT5[66] allow us to determine the in vivo transport activity (substrate uptake by a GLUT into whole cells) for individual GLUTs and establish GLUT3 inhibitor selectivity for these transporters. […] Given the higher sequence similarity within Class 1 GLUTs, we expected GLUT3 inhibitors to affect Class 1 GLUTs much more than GLUT5. Indeed, G3iA-G3iF reduced the transport activities of some of the other Class 1 GLUTs (Fig. 3A–C, Table 2, Supplementary Fig. S6). […] For example, G3iB was an equipotent inhibitor of GLUT4, while G3iD and G3iE inhibited GLUT1 in a similar manner to GLUT3. […] Moreover, G3iD affected all Class 1 GLUTs, having the best relative selectivity for GLUT4.
Figure 3 Effect of GLUT3 inhibitors on GLUT1, GLUT2, GLUT4, and GLUT5. The transport activity was assayed as the substrate uptake in hexose transporter-deficient yeast cells expressing functional GLUT1[65], GLUT2[69], GLUT4[65], or GLUT5[66]. […] Transport assay was initiated by the addition of C^14-labeled substrate and stopped after 10 min (see “Materials and methods” for details). (A–D) Effect of G3iA-G3iF, at 50 µM concentration, on the relative transport activities of GLUT1 (A), GLUT2 (B), GLUT4 (C), and GLUT5 (D). Standard deviations for experimental points come from at least three independent measurements.
The plasmids containing functional constructs of GLUT1-5 were transformed in the corresponding hxt^0 strains[65],[66],[73] (EBY.VW4000 for GLUT5S72Y, EBY.S7 for GLUT1, GLUT2∆loopS_Q455R, GLUT3 and GLUT3S66Y, and SDY.022 for GLUT4) and grown on 2% (w/v) agar plates of the respective media supplemented with 1% (w/v) maltose. An initial culture of ~ 10 ml was started with a few colonies and grown for 2–3 days if the media was SC-uracil with 1% (w/v) maltose (GLUT1, GLUT3, GLUT4) or 1–2 days if the media was YEP with 1% (w/v) maltose and 100 µg/ml geneticin G418 (GLUT2∆loopS_Q455R and GLUT5S72Y). […] Then, cells were transferred in the same media so that OD600nm ~ 0.5 and grown further for 1–2 days.
For transport activity assay, cells in the hexose media were centrifuged (1000×g, 5 min, room temperature), washed once with PBS buffer (10 mM Na2HPO4, 1.8 mM KH2PO4, 2.7 mM KCl, 137 mM NaCl, pH 7.4), and resuspended in PBS buffer at an OD600nm ~ 10; each assay contained 100 µl of this cell solution. […] Substrate uptake into cells was linear for more than 20 min. […] The filtration membranes were transferred into scintillation vials with 10 ml of Scintillation Solution (BioSafeII; Research Products International, Mount Prospect, IL, USA), and vortexed briefly. The radioactivity was determined with a scintillation counter (Tri-carb 2900TR, Perkin Elmer, USA). As all compounds were solubilized in dimethyl sulfoxide (DMSO), controls for determining the relative transport activity included 1% (v/v) DMSO to represent DMSO used as vehicle control (i.e., 100% activity), and known inhibitors at saturating concentrations, 200 µM phloretin for GLUT1-4[69],[82], and 100 µM N-[4-(methylsulfonyl)-2-nitrophenyl]-1,3-benzodioxol-5-amine (MSNBA) for GLUT5 (i.e., complete inhibition). […] Data were analyzed with GraphPad Prism (San Diego, CA, USA).
Supplementary Figure S6. Dose response curves for GLUT3 inhibitors on the transport activities of GLUT1, GLUT2, and GLUT4 in hxt^0 yeast cells. Dose response curves for GLUT3 inhibitors in GLUT1 (top row), GLUT2 (middle row), and GLUT4 (bottom row). […] Error bars represent standard deviations from at least three independent measurements. Graphs, data analysis, and IC50 values were generated with GraphPad (www.graphpad.com).

Take `COc1ccccc1-n1c(/C=C/c2ccc(O)cc2)nc2ccc(Br)cc2c1=O` [G3iB, 6-bromo-2-[(E)-2-(4-hydroxyphenyl)ethenyl]-3-(2-methoxyphenyl)quinazolin-4(3H)-one]: the IC50 came to 25 ± 8.6 µM. The value for `Cc1cccnc1OC1CCN(c2cc(N3CCCC3CO)ncn2)CC1` (stereo not drawn) [G3iC] was 49.4 ± 6.7 µM. The value for `Cc1ccccc1CN(Cc1nnc(C(C)(C)C)o1)c1ccc2nc(O)[nH]c2c1` [G3iF] was more than 50 µM; that for `CC(=O)Nc1ccc(S(=O)(=O)Nc2ccc(Nc3cc(N(C)C)nc(C)n3)cc2)cc1` [G3iA, N-(4-{[(4-{[6-(dimethylamino)-2-methylpyrimidin-4-yl]amino}phenyl)amino]sulfonyl}phenyl)acetamide] was more than 50 µM; that for `O=C(Nc1cccc(Cl)c1)c1cccc(NC(=O)c2cccc([N+](=O)[O-])c2)c1` [G3iE, N-{3-[(3-chloroanilino)carbonyl]phenyl}-3-nitrobenzamide] was 22.4 ± 3.7 µM. The value for `Cc1cc(NC(=O)CCC2Cc3ccccc3NC2=O)nc(-c2ccccc2)n1` (stereo not drawn) [G3iD] was 17.7 ± 2.3 µM.

Usually IC50 stands for the concentration at which inhibition is half-maximal.
